Values of other authors, collected in article PMC3066546, “Development of modified nucleosides that have supremely high anti-HIV activity and low toxicity and prevent the emergence of resistant HIV mutants” (Proceedings of the Japan Academy. Series B, Physical and …, 2011).
Where two headings read alike, the source gives them in different places.

How the values were obtained:
[1] = test system: RT of the M184V mutant; set-up: method as in PMID 15456247; settings: 4′EddCTP compared with RT of wild-type HIV
[2] = test system: adenosine deaminase; set-up: method as in PMID 563233, PMID 17548498, PMID 18487070
[3] = test system: HIVs isolated from seven heavily drug-experienced patients; set-up: method as in PMID 11302824, PMID 12455229, PMID 15457679; settings: seven heavily drug-experienced AIDS patients, as efficiently as against wild-type HIV
[4] = target: Y181C (non-nucleoside reverse transcriptase inhibitor-resistant); set-up: method as in PMID 11087576, PMID 11577734, PMID 15200030; settings: MAGI assay
[5] = test system: MT-4 cells
[6] = test system: M184I drug-resistant HIV; set-up: method as in PMID 11087576, PMID 11577734, PMID 15200030; settings: MAGI assay
[7] = test system: ICR mice; settings: for Mortality (%): six-week-old ICR male mice
[8] = test system: 41/215 drug-resistant HIV; set-up: method as in PMID 11087576, PMID 11577734, PMID 15200030; settings: MAGI assay
[9] = test system: M184V drug-resistant HIV; set-up: method as in PMID 11087576, PMID 11577734, PMID 15200030; settings: MAGI assay
[10] = test system: L74V drug-resistant HIV; set-up: method as in PMID 11087576, PMID 11577734, PMID 15200030; settings: MAGI assay
[11] = test system: adenosine deaminase; settings: 4′EdA to 4′EdI, 4′Ed2AA to 4′EdG
[12] = test system: MDR (multidrug-resistant HIV); settings: MAGI assay
[13] = test system: KH65R drug-resistant HIV; set-up: method as in PMID 11087576, PMID 11577734, PMID 15200030; settings: MAGI assay
[14] = test system: Hela cells; settings: Table 4, Hela cells
[15] = test system: HXB2 (wild type HIV); set-up: method as in PMID 11087576, PMID 11577734, PMID 15200030; settings: MAGI assay
[16] = test system: 41/69/ 125/SG drug-resistant HIV; set-up: method as in PMID 11087576, PMID 11577734, PMID 15200030; settings: MAGI assay
[17] = test system: HIV-1LAI; settings: MTT assay, MT-4 cells
[18] = test system: HIV-1 Wild-type; set-up: method as in PMID 563233, PMID 17548498, PMID 18487070; settings: Table 6
[19] = Table 6
[20] = test system: other cells
[21] = CEM cells, MT4 cells, MAGI-CCR5 cells
[22] = intraveneous administration, 1 mg/Kg
[23] = intraveneous administration, 3 mg/Kg
[24] = intraveneous administration, 10 mg/Kg
[25] = intraveneous administration, 100 mg/Kg

Compound | potency against HIVs isolated from patients [3] | EC50 [4] [nM] | CC50 ([5]; Table 3) [nM] | EC50 [6] [nM] | Mortality (%) [7, 22] [%] | Mortality (%) [7, 23] [%] | Mortality (%) [7, 24] [%] | Mortality (%) [7, 25] [%] | Mortality (%) ([7]; oral administration, 1 mg/Kg) | Mortality (%) ([7]; oral administration, 3 mg/Kg) | Mortality (%) ([7]; oral administration, 10 mg/Kg) | Mortality (%) ([7]; oral administration, 100 mg/Kg) | EC50 [8] [nM] | EC50 [9] [nM] | EC50 [10] [nM] | EC50 [12] [nM] | EC50 [13] [nM] | CC50 [14] [nM] | EC50 [15] [nM] | EC50 [16] [nM] | other results
C#CC1(COP(=O)(O)OP(=O)(O)OP(=O)(O)O)CCC(n2ccc(N)nc2=O)O1 (single isomer, unassigned) [L-isomer of 4′EddCTP] | – | – | – | – | – | – | – | – | – | – | – | – | – | – | – | – | – | – | – | – | activity against RT of the M184V mutant [1]: not active
C#C[C@]1(CO)O[C@@H](n2cnc3c(N)ncnc32)C[C@@H]1O [4′EdA, 2′-deoxy-4′-C-ethynyladenosine] | highly potent | 11 | 16000 | 22 | 0 | 0 | 0 | 0 | 0 | 0 | 0 | 0 | 12 | 47 | 4 | 6.2 | 3.3 | > 200000 | 8 | 65 | time to complete deamination by adenosine deaminase [2]: 60 min; CC50 ([5]; Table 2): 16000 nM; survival of mice ([7]; single dosage of 3–100 mg kg−1, both intravenous and oral): All eight mice survived; conversion by adenosine deaminase in mice [11]: easily converted to 4′EdI; EC50 ([17]; Table 2): 9.8 nM
C#C[C@]1(CO)O[C@@H](n2cnc3c(N)nc(N)nc32)C[C@@H]1O [4′Ed2AA, 2′-deoxy-4′-C-ethynyl-2-aminoadenosine] | highly potent | 0.8 | 820 | 2.7 | 0 | 0 | 100 | 100 | 0 | 100 | 100 | 100 | 1.7 | 5.9 | 0.7 | 1 | 0.35 | > 200000 | 1.4 | 4.1 | EC50 [18]: 0.34 nM; CC50 [19]: 900 nM; survival days of mice after administration ([7]; intraveneous, 10 mg/Kg): 2 days; survival days of mice after administration ([7]; intraveneous, 100 mg/Kg): 1 days; survival days of mice after administration ([7]; oral, 3 mg/Kg): 2 days; survival days of mice after administration ([7]; oral, 10 mg/Kg): 2 days; survival days of mice after administration ([7]; oral, 100 mg/Kg): 1 days; conversion by adenosine deaminase in mice [11]: easily converted; EC50 ([17]; Table 3): 0.3 nM
C#C[C@]1(CO)O[C@@H](n2cnc3c(=O)[nH]c(N)nc32)C[C@@H]1O [4′EdG, 2′-deoxy-4′-C-ethynylguanosine] | highly potent | 10 | 1500 | 4.1 | 0 | 100 | 100 | 100 | 0 | 100 | 100 | 100 | 19 | 8 | 1.2 | 4.8 | 1 | 52000 | 7 | 6.8 | survival days of mice after administration ([7]; intraveneous, 3 mg/Kg): 4 days; survival days of mice after administration ([7]; intraveneous, 10 mg/Kg): 2 days; survival days of mice after administration ([7]; intraveneous, 100 mg/Kg): 1 days; survival days of mice after administration ([7]; oral, 3 mg/Kg): 4 days; survival days of mice after administration ([7]; oral, 10 mg/Kg): 4 days; survival days of mice after administration ([7]; oral, 100 mg/Kg): 1 days; EC50 ([17]; Table 3): 1.4 nM
C#C[C@]1(CO)O[C@@H](n2cc(F)c(N)nc2=O)C[C@@H]1O [4′-C-ethynyl-2′-deoxy-5-fluorocytidine] | – | – | – | – | – | – | – | – | – | – | – | – | – | – | – | – | – | – | – | – | CC50 ([5]; Table 2): > 100000 nM; toxicity with other cells [20]: toxic; EC50 ([17]; Table 2): 30 nM
3′-azido-3′-deoxythymidine-5′-O-phosphate [AZTTP, reference compound] | – | – | – | – | – | – | – | – | – | – | – | – | – | – | – | – | – | – | – | – | intracellular half-life (T1/2) [21]: 3 h
